From paper PMC6423129, “Activity and structural analysis of GRL-117C: a novel small molecule CCR5 inhibitor active against R5-tropic HIV-1s” (Scientific Reports, 2019)
Where a name gives a salt, the structure may show the parent alone. Read-outs that look alike come from different tables or passages of the source.

Key:
R5-HIV-1Ba-L = experiment: MAGI assay using MAGI/CCR5 cells and R5-HIV-1Ba-L; assay type: cell-based; conditions: Ba-L (MAGI)
Experimental: (§1) MAGI-CCR5 cells[18] were maintained in DMEM supplemented with 10% fetal calf serum (FCS: Gemini Bio-Products, West Sacramento, CA), 200 μg/ml G418, 100 μg/ml hygromycin B, and 100 μg/ml zeomycin. The Chinese hamster ovary (CHO) cells expressing CCR5[19] were maintained in Ham’s F-12 medium (GIBCO-BRL, Rockville, MD) supplemented with 10% FCS, 50 U/ml penicillin, and 50 μg/ml streptomycin in the presence of 5 μg/ml blasticidin S hydrochloride. TZM-bl cells were obtained from the NIH AIDS Reagent Program, and were cultured in DMEM with 10% FCS. Peripheral blood mononuclear cells (PBMCs) were isolated from buffy coats of HIV-1 seronegative individuals, and were activated with 10 μg/ml phytohemagglutinin (PHA) prior to use[16]. A laboratory wild-type R5-HIV-1 strain (HIV-1Ba-L)[37] was employed for drug susceptibility assays. AD101 (experimental CCR5 inhibitor) and VVC-resistant HIV clones[7],[8] were provided by Dr. John P. Moore of Cornell University for this study. The clones were propagated with activated PBMCs, and were used for the assays. A clinical HIV-1 strain, HIV-1KP-5pc, and an MVC-resistant isolate, HIV-1KP-5mvcR, were prepared and used for antiviral assays, as previously described[10],[38]. The following reagents (plasmids) for T/F HIV-1 viruses[22],[24] were obtained through the NIH AIDS Reagent Program, Division of AIDS, NIAID, NIH: pCH040.c/2625 (cat# 11740), pCH106.c/2633 (cat# 11743), pTHRO.c/2626 (cat# 11745), and pCH058.c/2960 (cat# 11856), from Dr. John Kappes and Dr. Christina Ochsenbauer.
(§2) Antiviral assays using PHA-PBMCs (p24 assay) were conducted as previously reported[16],[38]. In brief, PHA-PBMCs (1 × 10^6/ml) were exposed to 50 TCID50 of HIV-1Ba-L or drug-resistant HIV-1 infectious clones in the presence or absence of various concentrations of drugs; 10-fold serial dilutions were performed in 96-well microculture plates. The amount of p24 antigens produced by the cells was determined on day 7 in the culture via a commercially available ELISA kit (PerkinElmer). The p24 production level in drug-free control cell cultures was used as the reference. […] Antiviral assays using MAGI-CCR5 cells (MAGI assay) were conducted as previously reported[16],[39]. Single-round virus infection assays using TZM-bl cells infected with R5-HIV-1s (HIV-1YU2, HIV-1KP-5pc, and HIV-1KP-5mvcR)[10] were also conducted as previously described.

R5-HIV-1BaL = experiment: p24 assay using PBMCs and R5-HIV-1BaL; assay type: cell-based; conditions: Ba-L (PBMCs), day 7
Experimental: as §1, §2

CC1/85 cl.6 = experiment: Anti-HIV-1 assay, drug-naive clinical strain CC1/85 cl.6; assay type: cell-based; conditions: CC1/85 cl.6, drug naive R5-HIV-1 clinical strain, read-out: IC50
Experimental: as §1, §2

CC1/85 cl.7 = experiment: Anti-HIV-1 assay, drug-naive clinical strain CC1/85 cl.7; assay type: cell-based
Experimental: as §1, §2

[1] = test system: CC101.19 cl.7 (AD101 resistant); experiment: microbe, parasite or virus in culture; assay type: cell-based, HIV-1; conditions: for fold increases of IC50s compared to wild type (CC1/85 cl.7): CC101.19 cl.7 (AD101 resistant) vs CC1/85 cl.7
Experimental: as §1, §2

[2] = test system: D1/85.16 cl.23 (VVC resistant); experiment: microbe, parasite or virus in culture; assay type: cell-based, HIV-1; conditions: for fold increases of IC50s compared to wild type (CC1/85 cl.7): D1/85.16 cl.23 (VVC resistant) vs CC1/85 cl.7
Experimental: as §1, §2

pCH040.c/2625 = experiment: MAGI assay, T/F HIV-1 clone pCH040.c/2625; assay type: cell-based; conditions: Human immunodeficiency virus 1, MAGI
From the text: (§3) We also examined the activity of GRL-compounds against Transmitter/founder (T/F) HIV-1 viruses. T/F viruses are involved in the initial infection. It is considered that T/F viruses virtually always use CCR5 rather than CXCR4 and infect T cells but not macrophages because […] of CD4 is needed to mediate virus entry for the initial transmission[20]–[24]. […] We obtained four HIV-1 T/F infectious clones. We determined the antiviral activity of GRL-117C, GRL-10007C and GRL-10018C on these HIV-1 clones using MAGI assay.
as §1, with “A clinical HIV-1 strain, HIV-1KP-5pc, and an MVC-resistant isolate, HIV-1KP-5mvcR, were prepared and used for antiviral assays, as previously described[10],[38].” left out
as §2

pCH0.6.c/2633 = experiment: MAGI assay, T/F HIV-1 clone pCH0.6.c/2633; assay type: cell-based; conditions: Human immunodeficiency virus 1, MAGI
From the text: as §3
as §1, with “A clinical HIV-1 strain, HIV-1KP-5pc, and an MVC-resistant isolate, HIV-1KP-5mvcR, were prepared and used for antiviral assays, as previously described[10],[38].” left out
as §2

pTHRO.c/2626 = experiment: MAGI assay, T/F HIV-1 clone pTHRO.c/2626; assay type: cell-based; conditions: Human immunodeficiency virus 1, MAGI
From the text: as §3
as §1, with “A clinical HIV-1 strain, HIV-1KP-5pc, and an MVC-resistant isolate, HIV-1KP-5mvcR, were prepared and used for antiviral assays, as previously described[10],[38].” left out
as §2

pCH058.c/2960 = experiment: MAGI assay, T/F HIV-1 clone pCH058.c/2960; assay type: cell-based; conditions: Human immunodeficiency virus 1, MAGI
From the text: as §3
as §1, with “A clinical HIV-1 strain, HIV-1KP-5pc, and an MVC-resistant isolate, HIV-1KP-5mvcR, were prepared and used for antiviral assays, as previously described[10],[38].” left out
as §2

HIV-1YU2 = experiment: TZM-bl single-round infection assay, HIV-1YU2; assay type: cell-based; conditions: Human immunodeficiency virus 1, YU2, drug-sensitive, mean ± SD
Experimental: as §1, §2

HIV-1KP-5pc = experiment: TZM-bl single-round infection assay, HIV-1KP-5pc; assay type: cell-based; conditions: for IC50: KP-5pc, drug-sensitive clinical strain, TZM-bl assay, mean ± SD
Experimental: as §1, §2

HIV-1KP-5mvcR = experiment: TZM-bl single-round infection assay, MVC-resistant HIV-1KP-5mvcR; assay type: cell-based
Experimental: as §1, §2

CCR5 [3] = molecular target: T1, CCR5 (Homo sapiens, UniProt P51681); experiment: Inhibition of 125I-MIP-1α binding to CCR5 (CCR5+ CHO cells)
T1 construct: expressed in transfected cells; host or cells: Chinese hamster ovary (CHO) cells expressing CCR5
Experimental: (§4) In order to determine whether GRL derivatives block the binding of CC-chemokines to CCR5, we conducted a CC-chemokine binding inhibition assay using ^125I-labeled CC-chemokines (^125I-RANTES, ^125I-MIP-1α, and ^125I-MIP-1β) and CCR5 expressing cells.
(§5) CCR5^+ CHO cells were incubated with (A) ^125I-MIP-1α, (B) ^125I-MIP-1β, and (C) ^125I-RANTES (200 ng/ml) in the presence or absence of varying concentrations of CCR5 inhibitors. Data are shown as means ± s.d. of three independent experiments.
(§6) The inhibition of the binding of ^125I-labeled CC-chemokines ([^125I] RANTES, [^125I] MIP-1α, or [^125I] MIP-1β) to CCR5 by various CCR5 inhibitors was measured as previously described. Calcium flux inhibition assays were also performed with CCR5 inhibitors, and were carried out with the Fluo-4 Direct^TM calcium reagent (Invitrogen); assays were conducted as previously described with minor modifications. In brief, CHO-CCR5 cells (5 × 10^5 cells) were exposed to Fluo-4 Direct^TM calcium reagent for 60 min at 37 °C in RPMI containing 5% FCS. Cells were then incubated with the test compound for 30 min at varying concentrations. Subsequently, cells were exposed to either MIP-1α, MIP-1β, or RANTES at 200 ng/ml. Relative increases in cytosolic Ca^2+ levels after chemokine exposure were determined with flow cytometry (FACSCalibur, BD Biosciences), and IC50 values of cytosolic Ca^2+ mobilization (Ca^2+ flux) were compared with the Ca^2+ flux level in drug-free control samples.

CCR5 [4] = molecular target: T1, CCR5; experiment: Inhibition of 125I-MIP-1β binding to CCR5 (CCR5+ CHO cells)
Experimental: as §4, §5, §6

CCR5 [5] = molecular target: T1, CCR5; experiment: Inhibition of 125I-RANTES binding to CCR5 (CCR5+ CHO cells)
Experimental: as §4, §5, §6

[6] = Human immunodeficiency virus 1, BAL
[7] = Human immunodeficiency virus 1, BAL, PBMC, 168 h
[8] = Human immunodeficiency virus 1, CC101.19 cl.7 (AD101 resistant)
[9] = Human immunodeficiency virus 1, D1/85.16 cl.23 (VVC resistant)
[10] = Human immunodeficiency virus 1, TZM-bl

T1 sequence (P51681 whole entry): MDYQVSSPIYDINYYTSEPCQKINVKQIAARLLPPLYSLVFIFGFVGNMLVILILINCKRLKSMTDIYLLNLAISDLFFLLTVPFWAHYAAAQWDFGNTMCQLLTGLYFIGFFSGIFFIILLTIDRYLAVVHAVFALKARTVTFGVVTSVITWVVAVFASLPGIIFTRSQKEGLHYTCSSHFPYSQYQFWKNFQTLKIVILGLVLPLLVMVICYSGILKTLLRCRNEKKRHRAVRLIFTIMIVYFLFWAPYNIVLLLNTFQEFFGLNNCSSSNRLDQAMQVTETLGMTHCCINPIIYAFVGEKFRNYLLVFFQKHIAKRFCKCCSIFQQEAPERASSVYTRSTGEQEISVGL

| Structure (SMILES) | IC50 (R5-HIV-1Ba-L; [6]) [nM] | IC90 (R5-HIV-1Ba-L; [6]) [nM] | IC50 (R5-HIV-1BaL; [7]) [nM] | IC90 (R5-HIV-1BaL; [7]) [nM] | IC50 (CC1/85 cl.6; Human immunodeficiency virus 1) [nM] | IC50 (CC1/85 cl.7; Human immunodeficiency virus 1) [nM] | IC90 (CC1/85 cl.7; Human immunodeficiency virus 1) [nM] | IC90 ([1]; Human immunodeficiency virus 1) [nM] | IC50 [1, 8] [nM] | IC90 ([2]; Human immunodeficiency virus 1) [nM] | IC50 [2, 9] [nM] | IC50 (pCH040.c/2625) [nM] | IC50 (pCH0.6.c/2633) [nM] | IC50 (pTHRO.c/2626) [nM] | IC50 (pCH058.c/2960) [nM] | fold increases of IC50s compared to wild type (CC1/85 cl.7) [1] | fold increases of IC50s compared to wild type (CC1/85 cl.7) [2] | further results |
| --- | --- | --- | --- | --- | --- | --- | --- | --- | --- | --- | --- | --- | --- | --- | --- | --- | --- | --- |
| CCCCN1C(=O)[C@@H]([C@H](O)C2CCCCC2)NC(=O)C12CCN(Cc1ccc(Oc3ccc(C(=O)O)cc3)cc1)CC2 [APL, 4-[4-[(3 R)-1-butyl-3-[(1 R)cyclohexylhydroxymethyl]-2,5-dioxo-1,4,9-triazaspiro [5.5]undec-9 ylmethyl]phenoxy] benzoic acid hydrochloride] | 0.2 | 4.9 | 2.6 | 13.4 | 1.5 | 1.8 | 11.3 | 200 | 16.3 | 98.6 | 8.6 | 0.7 ± 0.2 | 1.9 ± 0.2 | 0.9 ± 0.1 | 1.7 ± 0.2 | – | – | – |
| CCCCOCCOc1ccc(-c2ccc3c(c2)/C=C(/C(=O)Nc2ccc([S@@+]([O-])Cc4cncn4CCC)cc2)CCCN3CC(C)C)cc1 [CVC, cenicriviroc] | – | – | – | – | – | – | – | – | – | – | – | – | – | – | – | – | – | IC50 (HIV-1YU2): 1.1 ± 0.7 nM; IC90 (HIV-1YU2): 6.2 nM; IC90 (HIV-1KP-5pc; [10]): 105 nM; IC50 (HIV-1KP-5pc; [10]): 4.1 nM; IC50 (HIV-1KP-5pc): 4.9 ± 2.2 nM; IC50 (HIV-1KP-5mvcR; [10]): 260 ± 352 nM; IC90 (HIV-1KP-5mvcR; [10]): > 300 nM; fold change of IC50 values between HIV-1KP-5pc (wild type) and HIV-1KP-5mvcR (HIV-1KP-5mvcR; KP-5mvcR vs KP-5pc / wild type): 63 fold |
| C=CCN(C(=O)OCC1COC2OCCC12)C1CC2CCC(C1)N2CCC(C)(CN(C)S(=O)(=O)c1ccccc1)c1ccccc1 (stereo not shown) [GRL-10018C] | 2.9 | 27.5 | 18.7 | 155 | – | 4.9 | 34.9 | 553 | 52.5 | 642 | 61.3 | 7.2 ± 1.4 | 8.8 ± 4.2 | 3.9 ± 1.1 | 8 ± 2.3 | (×11) fold | (×12.5) fold | activity against MVC-resistant HIV-1 (HIV-1KP-5mvcR) (HIV-1KP-5mvcR; in words, data not shown): failed to demonstrate activity; EC50 (CCR5 [3]): 0.3 nM; EC50 (CCR5 [4]): 0.4 nM; EC50 (CCR5 [5]): 17 nM |
| CCO/N=C(\c1ccc(Br)cc1)C1CCN(C2(C)CCN(C(=O)c3c(C)cc[n+]([O-])c3C)CC2)CC1 [SCH-C] | 4.8 | 15.9 | 13.9 | 97.2 | 5.2 | 6.1 | 67.7 | > 1000 | > 1000 | > 1000 | 412 | – | – | – | – | – | – | – |
| Cc1ccc(-c2ccc3c(c2)C=C(C(=O)Nc2ccc(C[N+](C)(C)C4CCOCC4)cc2)CCC3)cc1.[Cl-] [TAK-779] | – | – | – | – | – | – | – | – | – | – | – | – | – | – | – | (×14) fold | (×5.9) fold | IC50 (R5-HIV-1Ba-L): 15.7 nM; IC90 (R5-HIV-1Ba-L): 88.1 nM; IC50 (R5-HIV-1BaL): 31.6 nM; IC90 (R5-HIV-1BaL): 187 nM; IC50 (CC1/85 cl.6): 22.7 nM; IC50 (CC1/85 cl.7; CC1/85 cl.7, drug naive R5-HIV-1 clinical strain, read-out: IC50): 28.3 nM; IC90 (CC1/85 cl.7; CC1/85 cl.7, drug naive R5-HIV-1 clinical strain, read-out: IC90): 101 nM; IC50 ([1]; CC101.19 cl.7 (AD101 resistant), read-out: IC50): 400 nM; IC90 ([1]; CC101.19 cl.7 (AD101 resistant), read-out: IC90): > 1000 nM; IC50 ([2]; D1/85.16 cl.23 (VVC resistant), read-out: IC50): 166 nM; IC90 ([2]; D1/85.16 cl.23 (VVC resistant), read-out: IC90): 747 nM |
